Target: human GPBAR1 receptor (Homo sapiens (Human), UniProt Q8TDU6)
Assay: functional cAMP assay in CHO-dhfr(minus) cells expressing human GPBAR1 receptors
Type: cell-based
Details: CHO-dhfr(minus) cells expressing human GPBAR1, 30 min at 30° C.
Method in brief: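 CHO-dhfr- cells were transfected with human GPBAR1, and a clone was chosen by cAMP response to lithocholic acid. EC50 values come from the cAMP read-out; specificity was checked in non-transfected CHO cells.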

human GPBAR1 receptor, sequence (Q8TDU6 whole entry): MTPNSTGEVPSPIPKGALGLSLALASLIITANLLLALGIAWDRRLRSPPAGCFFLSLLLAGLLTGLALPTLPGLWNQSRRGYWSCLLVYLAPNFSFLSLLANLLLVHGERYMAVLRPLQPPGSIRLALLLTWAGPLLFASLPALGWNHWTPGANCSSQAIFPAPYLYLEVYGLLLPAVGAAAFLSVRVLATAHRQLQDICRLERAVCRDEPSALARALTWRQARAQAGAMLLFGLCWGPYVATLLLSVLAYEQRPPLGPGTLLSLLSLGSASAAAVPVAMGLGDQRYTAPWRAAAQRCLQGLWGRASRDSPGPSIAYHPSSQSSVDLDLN

Question: Which EC50 does the source give for `COc1cnccc1-c1ccncc1N(C)C(=O)c1cc(C(F)(F)F)cc(C(F)(F)F)c1` [Example 69, N-(3′-Methoxy-[4,4′]bipyridinyl-3-yl)-N-methyl-3,5-bis-trifluoromethyl-benzamide] here?
Answer: 0.377 µM

Question: With `Cc1ccccc1-c1ccncc1N(C(=O)c1cc(C(F)(F)F)cc(C(F)(F)F)c1)C1COC1` [Example 200, N-Oxetan-3-yl-N-(4-o-tolyl-pyridin-3-yl)-3,5-bis-trifluoromethyl-benzamide] as the compound, how does the EC50 read?
Answer: 1.2 µM

Question: How did the EC50 turn out when `CS(=O)(=O)CCN(C(=O)c1cc(C(F)(F)F)cc(S(C)(=O)=O)c1)c1cnccc1-c1ccccc1Cl` [Example 288, N-[4-(2-Chloro-phenyl)-pyridin-3-yl]-3-methanesulfonyl-N-(2-methanesulfonyl-ethyl)-5-trifluoromethyl-benzamide] was run?
Answer: 1.48 µM

Question: For `Cc1cc(C)cc(C(=O)N(C)c2cnccc2-c2ccccc2C)c1` [Example 96, 3,5,N-Trimethyl-N-(4-o-tolyl-pyridin-3-yl)-benzamide], which EC50 is on record?
Answer: 0.127 µM

Question: How did the EC50 turn out when `COc1ccccc1-c1ccncc1N(C)C(=O)c1cc(C(F)(F)F)cc(C(F)(F)F)c1` [Example 29, N-[4-(2-Methoxy-phenyl)-pyridin-3-yl]-N-methyl-3,5-bis-trifluoromethyl-benzamide] was run?
Answer: 0.011 µM

Question: How did the EC50 turn out when `Cc1ccccc1-c1ccncc1N(C)C(=O)c1ccc(F)c(C(F)(F)F)c1` [Example 5, 4-Fluoro-N-methyl-N-(4-o-tolyl-pyridin-3-yl)-5-trifluoromethyl-benzamide] was run?
Answer: 0.112 µM

Question: How did the EC50 turn out when `COc1cc(F)ccc1-c1ccncc1N(CC(N)=O)C(=O)c1cc(C(F)(F)F)cc(S(C)(=O)=O)c1` [Example 187, N-Carbamoylmethyl-N-[4-(4-fluoro-2-methoxy-phenyl)-pyridin-3-yl]-3-methanesulfonyl-5-trifluoromethyl-benzamide] was run?
Answer: 0.478 µM

Question: How did the EC50 turn out when `Cc1ccc(F)c(-c2ccncc2N(C)C(=O)c2cc(C(F)(F)F)cc(C(F)(F)F)c2)c1` [Example 42, N-[4-(2-Fluoro-5-methyl-phenyl)-pyridin-3-yl]-N-methyl-3,5-bis-trifluoromethyl-benzamide] was run?
Answer: 0.119 µM

Question: How did the EC50 turn out when `Cc1ccccc1-c1cc(-c2ccc[nH]2)ncc1N(C)C(=O)c1cc(C(F)(F)F)cc(C(F)(F)F)c1` [Example 113, N-Methyl-N-[6-(1H-pyrrol-2-yl)-4-o-tolyl-pyridin-3-yl]-3,5-bis-trifluoromethyl-benzamide] was run?
Answer: 2.01 µM

Question: How did the EC50 turn out when `CS(=O)(=O)CCN(C(=O)c1cc(C(F)(F)F)nc(C(F)(F)F)c1)c1cnccc1-c1ccccc1F` [Example 159, N-[4-(2-Fluoro-phenyl)-pyridin-3-yl]-N-(2-methanesulfonyl-ethyl)-2,6-bis-trifluoromethyl-isonicotinamide] was run?
Answer: 0.326 µM

Question: How did the EC50 turn out when `Cc1ccccc1-c1ccncc1N(C)C(=O)c1cc(NCCO)cc(C(F)(F)F)c1` [Example 271, 3-(2-Hydroxy-ethylamino)-N-methyl-N-(4-o-tolyl-pyridin-3-yl)-5-trifluoromethyl-benzamide] was run?
Answer: 3.13 µM

Question: `COc1cc(F)ccc1-c1ccncc1N(C)C(=O)c1cc(SCCN)cc(C(F)(F)F)c1` [Example 237, 3-(2-Amino-ethylsulfanyl)-N-[4-(4-fluoro-2-methoxy-phenyl)-pyridin-3-yl]-N-methyl-5-trifluoromethyl-benzamide] was tested. Which EC50 did it give?
Answer: 0.34 µM

Question: For `CN(C(=O)c1cc(C(F)(F)F)cc(C(F)(F)F)c1)c1cnccc1-c1cccc(Cl)n1` [Example 71, N-(6-Chloro-[2,4′]bipyridinyl-3′-yl)-N-methyl-3,5-bis-trifluoromethyl-benzamide], which EC50 is on record?
Answer: 1.54 µM

Question: Which EC50 does the source give for `COC(=O)CN(C(=O)c1cc(C(F)(F)F)cc(S(C)(=O)=O)c1)c1cnccc1-c1cc(F)c(F)cc1OC` [Example 172, [[4-(4,5-Difluoro-2-methoxy-phenyl)-pyridin-3-yl]-(3-methanesulfonyl-5-trifluoromethyl-benzoyl)-amino]-acetic acid methyl ester] here?
Answer: 0.632 µM

Question: With `COc1cc(F)ccc1-c1ccncc1N(CC(F)F)C(=O)c1cc(C(F)(F)F)nc(C(F)(F)F)c1` [Example 153, N-(2,2-Difluoro-ethyl)-N-[4-(4-fluoro-2-methoxy-phenyl)-pyridin-3-yl]-2,6-bis-trifluoromethyl-isonicotinamide] as the compound, how does the EC50 read?
Answer: 0.019 µM

Question: `CN(C(=O)c1cc(C(F)(F)F)cc(C(F)(F)F)c1)c1cnccc1-c1ccc(F)cc1OCCO` [Example 52, N-{4-[4-Fluoro-2-(2-hydroxy-ethoxy)-phenyl]-pyridin-3-yl}-N-methyl-3,5-bis-trifluoromethyl-benzamide] was tested. Which EC50 did it give?
Answer: 0.463 µM

Question: How did the EC50 turn out when `COCCN(C)c1cc(-c2ccccc2C)c(N(C)C(=O)c2cc(C(F)(F)F)cc(C(F)(F)F)c2)cn1` [Example 18, N-{6-[(2-Methoxy-ethyl)-methyl-amino]-4-o-tolyl-pyridin-3-yl}-N-methyl-3,5-bis-trifluoro methyl-benzamide] was run?
Answer: 0.85 µM

Question: `COC(=O)CN(C(=O)c1cc(C(F)(F)F)cc(S(C)(=O)=O)c1)c1cnccc1-c1cc(F)ccc1OC` [Example 297, [[4-(5-Fluoro-2-methoxy-phenyl)-pyridin-3-yl]-(3-methanesulfonyl-5-trifluoromethyl-benzoyl)-amino]-acetic acid methyl ester] was tested. Which EC50 did it give?
Answer: 0.521 µM

Question: `COc1cc(F)ccc1-c1ccncc1N(C)C(=O)c1cc(C(F)(F)F)cc(S(=O)(=O)C2COC2)c1` [Example 255, N-[4-(4-Fluoro-2-methoxy-phenyl)-pyridin-3-yl]-N-methyl-3-(oxetane-3-sulfonyl)-5-trifluoromethyl-benzamide] was tested. Which EC50 did it give?
Answer: 0.053 µM

Question: With `COc1cc(F)ccc1-c1ccncc1N(CC1(C)COC1)C(=O)c1cc(C(F)(F)F)nc(C(F)(F)F)c1` [Example 207, N-[4-(4-Fluoro-2-methoxy-phenyl)-pyridin-3-yl]-N-(3-methyl-oxctan-3-ylmethyl)-2,6-bis-trifluoromethyl-isonicotinamide] as the compound, how does the EC50 read?
Answer: 0.318 µM

Question: With `COC(=O)CN(C(=O)c1cc(C(F)(F)F)nc(C(F)(F)F)c1)c1cnccc1-c1ccccc1F` [Example 196, Methyl 2-(N-(4-(2-fluorophenyl)pyridin-3-yl)-2,6-bis(trifluoromethyl)isonicotinamido)acetate] as the compound, how does the EC50 read?
Answer: 0.023 µM

Question: How did the EC50 turn out when `Cc1ccccc1-c1ccncc1N(C)C(=O)c1cccc(Cl)c1` [Example 3, N-Methyl-N-(4-o-tolyl-pyridin-3-yl)-3-chloro-benzamide] was run?
Answer: 0.902 µM

Question: `Cc1ccc(-c2ccncc2N(C)C(=O)c2cc(C(F)(F)F)cc(C(F)(F)F)c2)c(C)c1` [Example 26, N-[4-(2,4-Dimethyl-phenyl)-pyridin-3-yl]-N-methyl-3,5-bis-trifluoromethyl-benzamide] was tested. Which EC50 did it give?
Answer: 0.686 µM

Question: `Cc1ccc(C(=O)O)cc1-c1ccncc1N(C)C(=O)c1cc(C(F)(F)F)cc(C(F)(F)F)c1` [Example 84, 3-{3-[(3,5-Bis-trifluoromethyl-benzoyl)-methyl-amino]-pyridin-4-yl}-4-methyl-benzoic acid] was tested. Which EC50 did it give?
Answer: 2.02 µM

Question: For `Cc1ccccc1-c1ccncc1N(C)C(=O)c1cc(Cl)cc(C(F)(F)F)c1` [Example 109, 3-Chloro-N-methyl-N-(4-o-tolyl-pyridin-3-yl)-5-trifluoromethyl-benzamide], which EC50 is on record?
Answer: 0.022 µM

Question: `COc1cc(F)ccc1-c1cc(Cl)ncc1N(C)C(=O)c1cc(C(F)(F)F)cc(S(C)(=O)=O)c1` [Example 201, N-[6-Chloro-4-(4-fluoro-2-methoxy-phenyl)-pyridin-3-yl]-3-methanesulfonyl-N-methyl-5-trifluoromethyl-benzamide] was tested. Which EC50 did it give?
Answer: 0.267 µM

Question: Which EC50 does the source give for `COc1cc(F)ccc1-c1ccncc1N(C)C(=O)c1cc(OC(F)(F)F)cc(S(C)(=O)=O)c1` [Example 252, N-[4-(4-Fluoro-2-methoxy-phenyl)-pyridin-3-yl]-3-methanesulfonyl-N-methyl-5-trifluoromethoxy-benzamide] here?
Answer: 0.17 µM

Question: How did the EC50 turn out when `CN(C(=O)c1cc(C(F)(F)F)cc(C(F)(F)F)c1)c1cnccc1-c1cccnc1OCC(F)(F)F` [Example 106, N-Methyl-N-[2-(2,2,2-trifluoro-ethoxy)-[3,4′]bipyridinyl-3′-yl]-3,5-bis-trifluoromethyl-benzamide] was run?
Answer: 0.043 µM

Question: Which EC50 does the source give for `COc1cc(F)ccc1-c1ccncc1N(C)C(=O)c1cc(CCC(N)=O)cc(C(F)(F)F)c1` [Example 281, 3-(2-Carbamoyl-ethyl)-N-[4-(4-fluoro-2-methoxy-phenyl)-pyridin-3-yl]-N-methyl-5-trifluoromethyl-benzamide] here?
Answer: 0.574 µM

Question: For `CCC(=O)CN(C(=O)c1cc(C(F)(F)F)cc(S(C)(=O)=O)c1)c1cnccc1-c1ccc(F)cc1OC` [Example 204, N-[4-(4-Fluoro-2-methoxy-phenyl)-pyridin-3-yl]-3-methanesulfonyl-N-(2-oxo-butyl)-5-trifluoromethyl-benzamide], which EC50 is on record?
Answer: 0.619 µM

Question: `O=C(c1cc(C(F)(F)F)cc(C(F)(F)F)c1)N(CCO)c1cnccc1-c1ccccc1Cl` [Example 115, N-[4-(2-Chloro-phenyl)-pyridin-3-yl]-N-(2-hydroxy-ethyl)-3,5-bis-trifluoromethyl-benzamide] was tested. Which EC50 did it give?
Answer: 0.066 µM

Question: `Cc1ccccc1-c1ccncc1N(C)C(=O)c1ccc(C(F)(F)F)cc1` [Example 90, N-Methyl-N-(4-o-tolyl-pyridin-3-yl)-4-trifluoromethyl-benzamide] was tested. Which EC50 did it give?
Answer: 2.74 µM

Question: With `O=C(c1cc(C(F)(F)F)cc(C(F)(F)F)c1)N(c1cnccc1-c1ccccc1Cl)C1CC1` [Example 124, N-[4-(2-Chloro-phenyl)-pyridin-3-yl]-N-cyclopropyl-3,5-bis-trifluoromethyl-benzamide] as the compound, how does the EC50 read?
Answer: 1.98 µM

Question: `Cc1ccccc1-c1ccncc1N(C)C(=O)c1cc(N)cc(C(F)(F)F)c1` [Example 164, 3-amino-N-methyl-N-(4-o-tolylpyridin-3-yl)-5-(trifluoromethyl)benzamide] was tested. Which EC50 did it give?
Answer: 1.7 µM

Question: How did the EC50 turn out when `COc1cc(F)ccc1-c1ccncc1N(CC1CCOC1)C(=O)c1cc(C(F)(F)F)cc(S(C)(=O)=O)c1` (stereo not drawn) [Example 273, N-[4-(4-Fluoro-2-methoxy-phenyl)-pyridin-3-yl]-3-methanesulfonyl-N-(tetrahydro-furan-3-ylmethyl)-5-trifluoromethyl-benzamide] was run?
Answer: 1.5 µM

Question: Which EC50 does the source give for `COc1ccc(-c2ccncc2N(C)C(=O)c2cc(C(F)(F)F)cc(C(F)(F)F)c2)cn1` [Example 99, N-(6-Methoxy-[3,4′]bipyridinyl-3′-yl)-N-methyl-3,5-bis-trifluoromethyl-benzamide] here?
Answer: 2.94 µM

— patent US10385022B2, “3-amino-pyridines as GPBAR1 agonists” (HOFFMANN-LA ROCHE INC., priority 2011, dated 2019)
